No end group written: not given here.

Data on 6 compounds can be found in patent US9205128B2, “Method for inhibiting HIV replication in mammal and human cells” (priority 2010, dated 2015).

The target of one series is T1, vimentin (Homo sapiens, UniProt P08670).
T1 construct: these proteins are endogenous cellular proteins rather than viral; endogenous in cells; host or cells: MT4 cell line (untransduced, shRNA-transduced MT4vim(s), or peptide-treated)
The experiment in a line: Western blot of vimentin in MT4 cells incubated with peptides. It is filed as cell-based. As to conditions: 50 μM peptide, 24 h. The procedure:
The MT4 cell line was incubated at 50 μM of each peptide for 24 h. The vimentin protein was detected by the western blot technique. Cellular extracts were resuspended in 1% sodium dodecyl sulphate (SDS) and applied in a 10% polyacrylamide gel, being further transferred to a Hybond-P […] membrane. For immunoidentification purposes, anti-vimentin and anti-β actin (as control) antibodies were used. An anti-mouse IgG antibody-peroxidase conjugate was used as secondary antibody. The activity of the peroxidase enzyme was visualized by using diaminobenzidine in the presence of hydrogen peroxide and PBS.
In general terms: Immunoblotting shows a protein as a band on a membrane.

For the next series, the system named is HIV-2 CBL-20 strain. The series can be described thus: HIV-2 replication in pre-stimulated PBMCs, p24. The class given is cell-based. The conditions noted are these: 7 days. The procedure: PBMCs were isolated from whole blood of healthy individuals by using Ficoll density gradients. […] Cells were subsequently maintained in PHA-free medium and seeded at 150 000 cells per well in 96-well plates. After 24 h, peptides were added at different concentrations and the cultures were infected with the CBL-20 HIV-2 strain. The cultures were kept for 7 days, being changed every 3 days the medium and the peptides added. Cultures were harvested and supernatants collected to evaluate the presence of the p24 viral protein.

Series [1] deals with HIV-1. As to conditions: PBMCs of infected individuals treated ex vivo; 15d-PGJ2 at 5 μM; vs untreated cells.
Experimental: PBMCs were isolated from whole blood of HIV-1 infected individuals by Ficoll density gradients. […] Replication was evaluated by determining the p24 antigen concentration on culture supernatants by the ELISA method.
Series [2] relates to HIV-1. The experiment in a line: Total virus challenge of MT4 cells, p24 antigen ELISA. As to conditions: HIV-1 Bru, m.o.i. 0.01, 5-day incubation. It is filed as cell-based. For orientation: ELISA stands for enzyme-linked immunosorbent assay.
Another series has as its system vimentin protein. The conditions noted are these: Stamatakis et al. 2006; cited from earlier work.
The test system of a further series is MT4 cells. The experiment in a line: Cellular penetration of peptides by flow cytometry. It is filed as cell-based, human. The conditions noted are these: 5-40 μM, 15, 30 and 60 min. The procedure:
HeLa CD4+ cells were seeded in RPMI medium supplemented at 10% FBS and incubated until reaching 60% confluence of the monolayer. MT4 cells were seeded at 50 000 cells per well in RPMI medium at 10% FBS. Peptides identified as SEQ ID No. 1 and SEQ ID No. 3 were resuspended in injection water and evaluated at 5, 10, and 40 μM concentrations. Peptides were incubated for […] at 37° C. under a 5% CO2 atmosphere, and penetration was evaluated after 15, 30 and 60 min. After each period of time, cells were harvested and immediately analyzed by flow cytometry. Three replicates were analyzed per experimental variant.

Series [3] deals with HIV-1. As to conditions: 150 mg per day, 6 months follow-up; two of eight patients (both formulations pooled).
The subject of series [4] is cytoskeletal intermediate filaments (IFs). The experiment in a line: IFs structural analysis by transmission electron microscopy. It is filed as cell-based, human. As to conditions: treated patients (two with SEQ ID No. 1, three with SEQ ID No. 2). The protocol:
Firstly, MT4vim(s), MT4K-10(s) and MT4 cells were fixed in 3.2% glutaraldehyde for 1 h at 4° C. and then fixed in 2% osmium tetroxide for 1 h at 4° C. They were subsequently washed with 0.1 M phosphate buffered saline (PBS), pH 7.2, and dehydrated at increasing ethanol concentrations (30, 50, 70 and 100%) for 10 min each at 4° C. Inclusion was carried out and ultrathin 40-50 nm-width sections were taken in an ultramicrotome (NOVA, LKB), which were placed on 400-orifices nickel trays. Once the ultrathin cuts were taken and placed on the trays, they were contrasted with saturated uranyl acetate and lead citrate, and further examined under a JEOL JEM 2000 EX (JEOL) microscope. Five microphotographs were analyzed at different magnifications. MT4 cell intact IFs are shown in FIG. 5A, meanwhile these structures appeared shortened in MT4vim(s) MT4K-10(s) cells (FIGS. 5B and C, respectively). […] Inhibition of the viral replication was observed under these conditions. Vimentin or keratin-10 proteins were identified at IFs by immunomicroscopy.
IFs structure was analyzed by transmission electron microscopy, following the methodology described in Example 3.
IFs structures were analyzed by transmission electron microscopy, following the methodology described in Example 3. […]

T1 sequence (P08670 whole entry): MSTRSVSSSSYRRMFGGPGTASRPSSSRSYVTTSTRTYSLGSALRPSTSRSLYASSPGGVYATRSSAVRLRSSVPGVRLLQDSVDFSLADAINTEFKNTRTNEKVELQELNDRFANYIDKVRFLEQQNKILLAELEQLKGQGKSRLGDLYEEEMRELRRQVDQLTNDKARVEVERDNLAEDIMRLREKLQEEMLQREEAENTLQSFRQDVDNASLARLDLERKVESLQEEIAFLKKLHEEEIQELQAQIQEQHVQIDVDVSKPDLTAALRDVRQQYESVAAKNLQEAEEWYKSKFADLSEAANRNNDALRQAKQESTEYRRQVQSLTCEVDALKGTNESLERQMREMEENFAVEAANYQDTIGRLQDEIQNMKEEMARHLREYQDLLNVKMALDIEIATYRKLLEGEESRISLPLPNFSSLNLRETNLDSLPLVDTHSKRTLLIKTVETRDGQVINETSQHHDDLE

Turning to “RVTQMNLNDRLASLYDKVHYRIKPTFRRLKWKYKGKFW [Peptide 9]”, the vimentin band intensity entry at vimentin is “decreased intensity”. In the series with HIV-2 CBL-20 strain, the HIV-2 replication entry is reported as “inhibited HIV-2 replication in a dose-dependent manner”. Also, the “% of HIV-1 inhibition” value with HIV-1 [1] came to 81.3%.
For the compound KVELQELNDRFANYIDKVRF [Peptide 3], the “% of HIV-1 inhibition” value in the series with HIV-1 [1] amounted to 85.3%.
On to `CCCCC/C=C/C=C1/C(=O)C=C[C@@H]1C/C=C\CCCC(=O)O` [Peptide 15d-PGJ2, prostaglandin cyclopentane 15 deoxy-Δ-^12,14-PGJ2], for which, in the series with HIV-1 [2], the HIV replication result was “inhibits the HIV replication in vitro”. For the same compound, the binding to vimentin entry with vimentin protein is reported as “binds to the vimentin protein”. The “% of HIV-1 inhibition” value in the series on HIV-1 [1] is on record as 80.1%.
Consider RVTQMNLNDRLASLYDKV [Peptide 1], for which the penetration into cells result in the series on MT4 cells is “able to penetrate by their own into the MT4 cells”. Besides, the “% of HIV-1 inhibition” value in the series on HIV-1 [1] was determined as 89.3%.
As for DMEIATYRTLLEGEESRM [Peptide 2], the “viral load after treatment” value in the series on HIV-1 [3] is on record as “undetectable”. Besides, in series [4], the IFs structure entry is listed as “shortened”. Moreover, the HIV-2 replication entry with HIV-2 CBL-20 strain is recorded as “inhibited HIV-2 replication in a dose-dependent manner”. Also, in the series on HIV-1 [1], the “% of HIV-1 inhibition” value came to 81.1%.
In the case of “RVTQMNLNDRLASLYDKVRALEESNYELEGKIKEW [Peptide 8]”, at vimentin, the vimentin band intensity entry is listed as “decreased intensity”. In the series on HIV-2 CBL-20 strain, the HIV-2 replication entry was “inhibited HIV-2 replication in a dose-dependent manner”. Also, in the series on HIV-1 [1], the “% of HIV-1 inhibition” value is 86.7%.
